# Test results taken from PMC9899610 (Cancer Science, 2022).
# “And” between values parts separate entries of the source, which are not always exact repeats. Identical values can stand only once. “Also recorded” adds a separate entry of the source. Like-named read-outs stand apart in the source and are kept apart here.
# Experiments:
# [1] = test system: advanced solid tumors; experiment: Objective tumor response; assay type: in vivo, human
# [2] = test system: serum Pi; experiment: Post hoc hyperphosphatemia assessment with phosphate-binding therapy; assay type: in vivo, human
# [3] = for RAUC0–last / RCmax: ratio
# [4] = test system: patients with advanced solid tumors; conditions: global phase I study, 64% Caucasian patients; cited from earlier work
# [5] = clinical; conditions: human, plasma, oral; for AUC(0-inf): AUC0–inf; for AUC(0-t): AUC0–last
# [6] = test system: cancer cell lines harboring various FGFR gene abnormalities; conditions: cited from earlier work
# [7] = FGFR‐abnormal patients with GC, All patients (n = 21)
# [8] = FGFR‐abnormal patients with GC, FGRF2 CN <10 (n = 10)
# [9] = FGFR‐abnormal patients with GC, FGRF2 CN ≥10 (n = 11)
# [10] = Futibatinib regimen QD (n = 43)
# [11] = Futibatinib regimen TIW (n = 39)
# [12] = With FGF/FGFR abnormalities (n = 52)
# [13] = Without FGF/FGFR abnormalities or unknown (n = 30)
# [14] = 40 QD patients treated with phosphate-binding therapy
# [15] = Week 3 (day 21), QD 20 mg, n = 2, mean
# [16] = Week 3, TIW 36 mg, n = 3, mean (standard deviation)
# [17] = Week 3, TIW 56 mg, n = 6, mean (standard deviation)
# [18] = Week 3, TIW 80 mg, n = 5, mean (standard deviation)
# [19] = Week 3, TIW 120 mg, n = 3, mean (standard deviation)
# [20] = Week 3, TIW 160 mg, n = 4, mean (standard deviation)
# [21] = 16 mg, Day 1, QD 16 mg, n = 3, mean (standard deviation)
# [22] = 16 mg, Week 3, TIW 16 mg, n = 1
# [23] = 20 mg, Day 1, QD 20 mg, n = 7, mean (standard deviation)
# [24] = 20 mg, Week 3 (day 21), QD 20 mg, n = 2, mean
# [25] = 24 mg, Week 3, TIW 24 mg, n = 1
smiles,measurement,setting,value
C=CC(=O)N1CC[C@H](n2nc(C#Cc3cc(OC)cc(OC)c3)c3c(N)ncnc32)C1 [futibatinib],Best response CR,[1]; [7],0 (0.0) n (%)
same,Best response NE,[1]; [7],2 (9.5) n (%)
same,Best response PD,[1]; [7],12 (57.1) n (%)
same,Best response PR,[1]; [7],4 (19.0) n (%)
same,Best response SD,[1]; [7],3 (14.3) n (%)
same,DCR (95% CI),[1]; [7],33.3 (14.6–57.0) %
same,ORR (95% CI),[1]; [7],19.0 (5.4–41.9) %
same,Best response CR,[1]; [8],0 (0.0) n (%)
same,Best response NE,[1]; [8],2 (20.0) n (%)
same,Best response PD,[1]; [8],7 (70.0) n (%)
same,Best response PR,[1]; [8],0 (0.0) n (%)
same,Best response SD,[1]; [8],1 (10.0) n (%)
same,DCR (95% CI),[1]; [8],10.0 (0.3–44.5) %
same,ORR (95% CI),[1]; [8],0 (0–30.8) %
same,Best response CR,[1]; [9],0 (0.0) n (%)
same,Best response NE,[1]; [9],0 (0.0) n (%)
same,Best response PD,[1]; [9],5 (45.5) n (%)
same,Best response PR,[1]; [9],4 (36.4) n (%)
same,Best response SD,[1]; [9],2 (18.2) n (%)
same,DCR (95% CI),[1]; [9],54.5 (23.4–83.3) %
same,ORR (95% CI),[1]; [9],36.4 (10.9–69.2) %
same,Best response CR,[1]; [10],0 (0.0) n (%)
same,Best response NE,[1]; [10],4 (9.3) n (%)
same,Best response PD,[1]; [10],23 (53.5) n (%)
same,Best response PR,[1]; [10],5 (11.6) n (%)
same,Best response SD,[1]; [10],11 (25.6) n (%)
same,DCR (95% CI),[1]; [10],37.2 (23.0–53.3) %
same,ORR (95% CI),[1]; [10],11.6 (3.9–25.1) %
same,Best response CR,[1]; [11],0 (0.0) n (%)
same,Best response NE,[1]; [11],5 (12.8) n (%)
same,Best response PD,[1]; [11],23 (59.0) n (%)
same,Best response PR,[1]; [11],1 (2.6) n (%)
same,Best response SD,[1]; [11],10 (25.6) n (%)
same,DCR (95% CI),[1]; [11],28.2 (15.0–44.9) %
same,ORR (95% CI),[1]; [11],2.6 (0.1–13.5) %
same,Patients with best response of confirmed PR,[1]; GC patients with FGFR2 CN <10,0/10
same,Patients with best response of confirmed PR,[1]; GC patients with FGFR2 CN ≥10,4/11
same,Best response CR,[1]; Total (n = 82),0 (0.0) n (%)
same,Best response NE,[1]; Total (n = 82),9 (11.0) n (%)
same,Best response PD,[1]; Total (n = 82),46 (56.1) n (%)
same,Best response SD,[1]; Total (n = 82),21 n (%) and 21 (25.6) n (%)
same,DCR (95% CI),[1]; Total (n = 82),32.9 (22.9–44.2) %
same,ORR (95% CI),[1]; Total (n = 82),7.3 (2.7–15.2) %
same,Best response CR,[1]; [12],0 (0.0) n (%)
same,Best response NE,[1]; [12],6 (11.5) n (%)
same,Best response PD,[1]; [12],27 (51.9) n (%)
same,Best response PR,[1]; [12],6 (11.5) n (%)
same,Best response SD,[1]; [12],13 (25.0) n (%)
same,DCR (95% CI),[1]; [12],36.5 (23.6–51.0) %
same,ORR (95% CI),[1]; [12],11.5 (4.4–23.4) %
same,Best response CR,[1]; [13],0 (0.0) n (%)
same,Best response NE,[1]; [13],3 (10.0) n (%)
same,Best response PD,[1]; [13],19 (63.3) n (%)
same,Best response PR,[1]; [13],0 (0.0) n (%)
same,Best response SD,[1]; [13],8 (26.7) n (%)
same,DCR (95% CI),[1]; [13],26.7 (12.3–45.9) %
same,ORR (95% CI),[1]; [13],0 (0–11.6) %
same,Patients with confirmed PR,[1]; patients with GC evaluated for response,4/21
same,Futibatinib dose interruption,[2]; [14],30%
same,Futibatinib dose reduction,[2]; [14],12.5%
same,Safety concerns regardless of presence or absence of phosphate-binding therapy,[2]; futibatinib QD,No safety concerns were identified
same,Patients achieving the target serum Pi level,[2]; futibatinib dose reduction after starting phosphate-binding therapy (15 patients),86.7%
same,Hyperphosphatemia events leading to discontinuation of futibatinib,[2]; in vivo,not leading to futibatinib discontinuation; also recorded: none of the hyperphosphatemia events led to discontinuation of futibatinib
same,Patients achieving the target serum Pi level,[2]; no dose reduction after starting phosphate-binding therapy (10/20),50.0%
same,Cmax,"[3]; Day 1, TIW 80 mg, n = 6, mean (standard deviation)",866 (366) [42.3] ng/ml
same,t1/2,"[3]; Day 1, TIW 120 mg, n = 3, mean (standard deviation)",6.64 (1.08) [16.3] ^b h
same,Dose proportionality of Cmax and AUC,"[3]; TIW regimens, single and multiple administrations",dose‐proportional changes in Cmax and AUC0–last
same,Cmax,[3]; [15],173 (NC) [NC] ng/ml
same,RAUC0–last,[3]; [15],1.29 (NC) [NC]
same,RCmax,[3]; [15],0.91 (NC) [NC]
same,Cmax,"[3]; Week 3, TIW 8 mg, n = 1",167 (NC) [NC] ng/ml
same,t1/2,"[3]; Week 3, TIW 8 mg, n = 1",1.74 (NC) [NC] h
same,RAUC0–last,"[3]; Week 3, TIW 8 mg, n = 1",1.69 (NC) [NC]
same,RCmax,"[3]; Week 3, TIW 8 mg, n = 1",1.24 (NC) [NC]
same,t1/2,"[3]; Week 3, TIW 16 mg, n = 1",5.27 (NC) [NC] h
same,RAUC0–last,"[3]; Week 3, TIW 16 mg, n = 1",1.39 (NC) [NC]
same,RCmax,"[3]; Week 3, TIW 16 mg, n = 1",0.96 (NC) [NC]
same,RAUC0–last,"[3]; Week 3, TIW 24 mg, n = 1",0.80 (NC) [NC]
same,RCmax,"[3]; Week 3, TIW 24 mg, n = 1",0.72 (NC) [NC]
same,RAUC0–last,[3]; [16],1.51 (0.47) [30.9]
same,RCmax,[3]; [16],0.88 (0.44) [49.7]
same,RAUC0–last,[3]; [17],1.36 (0.44) [32.5]
same,RCmax,[3]; [17],1.25 (0.36) [28.8]
same,AUC0–last,[3]; [18],7394 (3731) [50.5] ng·h/ml
same,RAUC0–last,[3]; [18],1.25 (0.25) [20.0]
same,RCmax,[3]; [18],0.96 (0.09) [9.1]
same,RAUC0–last,[3]; [19],1.27 (0.29) [23.1]
same,RCmax,[3]; [19],1.02 (0.34) [33.2]
same,RAUC0–last,[3]; [20],1.54 (0.64) [41.6]
same,RCmax,[3]; [20],1.05 (0.82) [78.2]
same,Renal excretion of unchanged futibatinib,[3]; in vivo,negligible
same,Dose proportionality of Cmax and AUC,[4],statistically dose‐proportional between 4 mg and 24 mg QD
same,AUC(0-inf),"[5]; 8 mg, Day 1, TIW 8 mg, n = 1",390 ng·h/mL
same,AUC(0-inf),"[5]; 8 mg, Week 3, TIW 8 mg, n = 1",663 ng·h/mL
same,AUC(0-t),"[5]; 8 mg, Day 1, TIW 8 mg, n = 1",387 ng·h/mL
same,AUC(0-t),"[5]; 8 mg, Week 3, TIW 8 mg, n = 1",653 ng·h/mL
same,Cmax,"[5]; 8 mg, Day 1, TIW 8 mg, n = 1",135 ng/mL
same,Tmax,"[5]; 8 mg, Day 1, TIW 8 mg, n = 1, median",1.87 h
same,half-life,"[5]; 8 mg, t1/2, Day 1, TIW 8 mg, n = 1",1.58 h
same,AUC(0-inf),[5]; [21],1020 ng·h/mL
same,AUC(0-inf),"[5]; 16 mg, Day 1, TIW 16 mg, n = 1",1190 ng·h/mL
same,AUC(0-inf),[5]; [22],1580 ng·h/mL
same,AUC(0-t),[5]; [21],1010 ng·h/mL
same,AUC(0-t),"[5]; 16 mg, Day 1, TIW 16 mg, n = 1",1140 ng·h/mL
same,AUC(0-t),[5]; [22],1580 ng·h/mL
same,Cmax,[5]; [21],235 ng/mL
same,Cmax,"[5]; 16 mg, Day 1, TIW 16 mg, n = 1",189 ng/mL
same,Cmax,[5]; [22],182 ng/mL
same,Tmax,"[5]; 16 mg, Day 1, QD 16 mg, n = 3, median (minimum, maximum)",0.95 h
same,Tmax,"[5]; 16 mg, Day 1, TIW 16 mg, n = 1, median",1.95 h
same,Tmax,"[5]; 16 mg, Week 3, TIW 16 mg, n = 1, median",2.9 h
same,half-life,"[5]; 16 mg, t1/2, Day 1, QD 16 mg, n = 3, mean (standard deviation)",2.68 h
same,half-life,"[5]; 16 mg, t1/2, Day 1, TIW 16 mg, n = 1",5.72 h
same,AUC(0-inf),[5]; [23],983 ng·h/mL
same,AUC(0-inf),[5]; [24],729 ng·h/mL
same,AUC(0-t),[5]; [23],977 ng·h/mL
same,AUC(0-t),[5]; [24],727 ng·h/mL
same,Cmax,[5]; [23],253 ng/mL
same,half-life,"[5]; 20 mg, t1/2, Day 1, QD 20 mg, n = 7, mean (standard deviation)",2.18 h
same,half-life,"[5]; 20 mg, t1/2, Week 3 (day 21), QD 20 mg, n = 2, mean",3.05 h
same,AUC(0-inf),"[5]; 24 mg, Day 1, TIW 24 mg, n = 1",623 ng·h/mL
same,AUC(0-inf),[5]; [25],502 ng·h/mL
same,AUC(0-t),"[5]; 24 mg, Day 1, TIW 24 mg, n = 1",621 ng·h/mL
same,AUC(0-t),[5]; [25],499 ng·h/mL
same,Cmax,"[5]; 24 mg, Day 1, TIW 24 mg, n = 1",204 ng/mL
same,Cmax,[5]; [25],146 ng/mL
same,Tmax,"[5]; 24 mg, Day 1, TIW 24 mg, n = 1, median",1.95 h
same,Tmax,"[5]; 24 mg, Week 3, TIW 24 mg, n = 1, median",3.98 h
same,half-life,"[5]; 24 mg, t1/2, Day 1, TIW 24 mg, n = 1",1.55 h
same,half-life,"[5]; 24 mg, t1/2, Week 3, TIW 24 mg, n = 1",1.47 h
same,AUC(0-inf),"[5]; 36 mg, Week 3, TIW 36 mg, n = 3, mean",2160 ng·h/mL
same,half-life,"[5]; 36 mg, t1/2, Week 3, TIW 36 mg, n = 2, mean",3.64 h
same,Susceptibility to resistance development,[6],low susceptibility to resistance development
